Experimental data: PMC3580847 (Biochemistry, 2013)

Experiments:
Assay type in all cases: cell-based, Human
M4A4 cells = assay: Proliferation assay; conditions: 2 h treatment in DMEM pH 6.0 or 7.4, MTS at 48 h
MDA-MB-231 cells = assay: Proliferation assay; conditions: 2 h treatment in DMEM pH 6.0 or 7.4, MTS at 48 h
U2OS cells = assay: Proliferation assay; conditions: 2 h treatment in DMEM pH 6.0 or 7.4, MTS at 48 h
HeLa cells = tested on: HeLa cells

CC[C@H](C)[C@@H]1NC(=O)CNC(=O)[C@@H]2Cc3c([nH]c4cc(O)ccc34)[S@+]([O-])C[C@H](NC(=O)CNC1=O)C(=O)N[C@@H](CC(N)=O)C(=O)N1C[C@H](O)C[C@H]1C(=O)N[C@@H]([C@@H](C)[C@@H](O)CO)C(=O)N2 [amanitin, α-Amanitin]
inhibition of cell proliferation / toxicity (M4A4 cells): no toxicity was observed
inhibition of cell proliferation / toxicity (M4A4 cells; listed as Amanitin): no effect on proliferation
inhibition of cell proliferation / toxicity (MDA-MB-231 cells): no toxicity was observed
inhibition of cell proliferation / toxicity (MDA-MB-231 cells; listed as Amanitin): no effect on proliferation
inhibition of cell proliferation / toxicity (U2OS cells): no toxicity was observed
inhibition of cell proliferation / toxicity (U2OS cells; listed as Amanitin): no effect on proliferation

CN[C@@H]1C[C@H]2O[C@@](C)([C@@H]1OC)n1c3ccccc3c3c4c(c5c6ccccc6n2c5c31)C(=O)NC4 [staurosporine]
plasma membrane staining with AnnexinV-FITC (HeLa cells): stained with AnnexinV-FITC
